pKi: −log10 of the molar value.

The text below walks through data of ChEMBL document CHEMBL1800002, “Indazole derivatives as novel bradykinin B1 receptor antagonists” (Bioorg Med Chem Lett, 2010).

The target of one data set is Cannabinoid receptor 2 (Homo sapiens, UniProt P34972). In words: Displacement of radioligand from human CB2 receptor expressed in CHO cells. The format is cell-based.
Data set [1] is described as follows: Half life in Sprague-Dawley rat at 10 mg/kg, po or 2 mg/kg, iv. The data set is classed as ADME, organism-based. As to conditions: in vivo.
Data set [2] is described as follows: Apparent passive permeability coefficient by cell based assay. The data set is classed as ADME.
Data set [3] can be described thus: Oral bioavailability in Sprague-Dawley rat at 10 mg/kg. The note with it: in vivo. The format is ADME, organism-based.
Data set [4] in a line: Half life in Mongrel dog at 3 mg/kg, po or 1 mg/kg, iv. The data set is classed as ADME, organism-based, Canis lupus familiaris. The note with it: in vivo.
A short description of data set [5]: Clearance in Mongrel dog at 3 mg/kg, po or 1 mg/kg, iv. The data set is classed as ADME, organism-based, Canis lupus familiaris. As to conditions: in vivo.
Data set [6] in a line: Clearance in Sprague-Dawley rat at 10 mg/kg, po or 2 mg/kg, iv. The format is ADME, organism-based. The note with it: in vivo.
Data set [7] addresses ATP-dependent translocase ABCB1 (Homo sapiens, UniProt P08183). In words: Drug transport assessed as MDR1 -mediated transcellular transport ratio by P-gp transport assay. The format is ADME.
Another data set has as its system Liver microsomes. In words: Stability in human liver microsomes. The format is ADME, Microsome.

Chain of ATP-dependent translocase ABCB1 (P08183 whole entry): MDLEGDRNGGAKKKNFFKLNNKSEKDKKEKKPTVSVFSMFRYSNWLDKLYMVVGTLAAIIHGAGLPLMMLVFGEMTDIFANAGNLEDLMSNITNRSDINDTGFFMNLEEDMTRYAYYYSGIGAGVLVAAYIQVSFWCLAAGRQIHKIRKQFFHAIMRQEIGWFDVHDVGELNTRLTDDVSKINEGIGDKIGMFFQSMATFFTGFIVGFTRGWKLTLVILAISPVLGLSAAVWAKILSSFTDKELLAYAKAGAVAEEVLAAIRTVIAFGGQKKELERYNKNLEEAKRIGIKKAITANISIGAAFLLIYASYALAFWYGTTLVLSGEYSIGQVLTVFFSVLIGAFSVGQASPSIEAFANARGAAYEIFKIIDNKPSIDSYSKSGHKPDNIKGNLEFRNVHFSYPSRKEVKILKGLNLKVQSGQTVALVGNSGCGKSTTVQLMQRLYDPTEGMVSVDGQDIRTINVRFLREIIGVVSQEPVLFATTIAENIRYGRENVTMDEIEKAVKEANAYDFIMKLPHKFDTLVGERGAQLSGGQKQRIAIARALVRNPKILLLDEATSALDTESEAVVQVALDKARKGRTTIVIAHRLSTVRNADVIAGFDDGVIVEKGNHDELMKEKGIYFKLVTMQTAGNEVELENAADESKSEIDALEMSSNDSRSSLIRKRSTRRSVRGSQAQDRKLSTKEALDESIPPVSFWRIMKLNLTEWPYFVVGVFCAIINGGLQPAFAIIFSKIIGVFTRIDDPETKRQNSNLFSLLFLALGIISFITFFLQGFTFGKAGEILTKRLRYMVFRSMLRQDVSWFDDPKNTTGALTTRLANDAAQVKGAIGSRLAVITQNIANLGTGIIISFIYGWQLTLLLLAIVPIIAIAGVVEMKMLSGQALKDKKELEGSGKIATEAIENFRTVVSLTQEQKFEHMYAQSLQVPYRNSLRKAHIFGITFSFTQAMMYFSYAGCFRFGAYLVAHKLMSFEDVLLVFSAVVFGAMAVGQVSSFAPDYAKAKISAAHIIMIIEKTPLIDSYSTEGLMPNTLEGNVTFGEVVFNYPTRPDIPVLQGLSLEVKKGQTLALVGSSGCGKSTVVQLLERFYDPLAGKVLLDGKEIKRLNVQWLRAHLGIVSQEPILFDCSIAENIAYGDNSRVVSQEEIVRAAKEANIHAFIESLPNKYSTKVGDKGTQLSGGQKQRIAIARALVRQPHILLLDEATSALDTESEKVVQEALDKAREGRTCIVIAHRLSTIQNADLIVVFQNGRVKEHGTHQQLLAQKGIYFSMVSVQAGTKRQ
Chain of Cannabinoid receptor 2 (P34972 whole entry): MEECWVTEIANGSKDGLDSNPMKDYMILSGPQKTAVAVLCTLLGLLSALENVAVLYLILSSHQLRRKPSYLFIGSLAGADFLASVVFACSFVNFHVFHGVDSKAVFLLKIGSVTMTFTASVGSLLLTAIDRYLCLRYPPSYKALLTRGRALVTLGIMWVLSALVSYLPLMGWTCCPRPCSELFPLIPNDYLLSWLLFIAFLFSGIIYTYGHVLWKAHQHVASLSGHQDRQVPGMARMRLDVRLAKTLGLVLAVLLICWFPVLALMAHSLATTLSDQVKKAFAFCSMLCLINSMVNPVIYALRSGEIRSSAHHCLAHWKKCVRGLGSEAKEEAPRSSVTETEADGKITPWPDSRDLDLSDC

Turning to `COc1cc(C(=O)NC2(C(=O)N[C@H](C)c3ccc(-n4nc(C)c5ccccc54)cc3F)CC2)on1`, the pKi at Cannabinoid receptor 2 is less than 5.00.
As for `CCc1nn(-c2ccc([C@@H](C)NC(=O)C3(NC(=O)c4cc(OC)no4)CC3)c(F)c2)c2ccccc12`, on Cannabinoid receptor 2, the pKi is less than 5.00.
With `COc1cc(C(=O)NC2(C(=O)N[C@H](C)c3ccc(-n4nc(C5CC5)c5ccccc54)cc3F)CC2)on1`, on Cannabinoid receptor 2, the pKi was less than 5.00.
On the same count and under the same terms, with `COc1cc(C(=O)NC2(C(=O)N[C@H](C)c3ccc(-n4nc(-c5ccccc5)c5ccccc54)cc3F)CC2)on1` the figure was less than 5.00.
Still for that read-out and setting: with `COc1cc(C(=O)NC2(C(=O)N[C@H](C)c3ccc(-n4nc(Br)c5ccccc54)cc3F)CC2)on1` the figure was less than 5.00.
The same measure, in the same setting: the figure for `COc1cc(C(=O)NC2(C(=O)N[C@H](C)c3ccc(-n4[nH]c(=O)c5ccccc54)cc3F)CC2)on1` is less than 5.00; for `COc1cc(C(=O)NC2(C(=O)N[C@H](C)c3ccc(-n4nc(OC)c5ccccc54)cc3F)CC2)on1` it is less than 5.00.
As for `COc1cc(C(=O)NC2(C(=O)N[C@H](C)c3ccc(-n4nc(C#N)c5ccccc54)cc3F)CC2)on1`, on Cannabinoid receptor 2, the pKi is less than 5.00.
Consider `COc1cc(C(=O)NC2(C(=O)N[C@H](C)c3ccc(-n4nc(Cl)c5ccccc54)cc3F)CC2)on1`, for which the values for the half-life in data set [1] and in data set [4] were 3.1 h and 20.8 h, respectively. Also, in data set [2], the Papp came out at 26 ×10⁻⁶ cm/s. Also, the pKi on Cannabinoid receptor 2 was less than 5.00. Also, the bioavailability in data set [3] turned out to be 49%. For the same compound, the clearance worked out at 1.3 mL/min/kg in data set [5] and 5.3 mL/min/kg in data set [6]. Moreover, the Ratio in data set [7] came out at 1.6.
On to `C[C@@H](NC(=O)C1(NC(=O)c2cncs2)CC1)c1ccc(-n2nc(Cl)c3ccccc32)cc1F`, for which the Papp in data set [2] was determined as 19 ×10⁻⁶ cm/s. This compound also had a half-life in data set [4] of 4.3 h. Besides, the clearance in data set [5] was found to be 1.1 mL/min/kg. For the same compound, the Ratio in data set [7] was 2.8.
`COc1ncc(C(=O)NC2(C(=O)N[C@H](C)c3ccc(-n4nc(Cl)c5ccccc54)cc3F)CC2)s1`: the half-life in data set [1] and in [4] was 8.3 h throughout. Besides, in data set [2], the Papp was determined as 14 ×10⁻⁶ cm/s. For the same compound, the bioavailability in data set [3] turned out to be 13%. The clearance stood at 1.7 mL/min/kg in data set [5] and 12.7 mL/min/kg in data set [6]. Besides, in data set [7], the Ratio is 1.8.
For the compound `COc1cc(C(=O)NC2(C(=O)N[C@H](C)c3ccc(-n4ncc5ccccc54)cc3F)CC2)on1`, on Cannabinoid receptor 2, the pKi was less than 5.00.
On to `Cc1ncsc1C(=O)NC1(C(=O)N[C@H](C)c2ccc(-n3nc(Cl)c4ccccc43)cc2F)CC1`, for which, in the data set with Liver microsomes, the Stability entry is given as “Unstable”.
Regarding `Cc1nnsc1C(=O)NC1(C(=O)N[C@H](C)c2ccc(-n3nc(Cl)c4ccccc43)cc2F)CC1`, in data set [2], the Papp came out at 21 ×10⁻⁶ cm/s. In [4], this compound had a half-life of 2.4 h. Moreover, the clearance in data set [5] was determined as 9.6 mL/min/kg. For the same compound, in data set [7], the Ratio amounted to 2.3.
As for `C[C@@H](NC(=O)C1(NC(=O)c2cn[nH]c2)CC1)c1ccc(-n2nc(Cl)c3ccccc32)cc1F`, in data set [2], the Papp stood at 19 ×10⁻⁶ cm/s. For the same compound, the Stability entry in the data set with Liver microsomes was “Stable”. In [7], the Ratio was 55.6.
As for `C[C@@H](NC(=O)C1(NC(=O)c2ccc(Br)nc2)CC1)c1ccc(-n2nc(Cl)c3ccccc32)cc1F`, the Papp in data set [2] was 8.2 ×10⁻⁶ cm/s. In data set [4], this compound gave a half-life of 7.1 h. This compound also yielded a clearance in data set [5] of 2.6 mL/min/kg. In addition, the Ratio in data set [7] worked out at 2.2.
As to `Cc1cncc(C(=O)NC2(C(=O)N[C@H](C)c3ccc(-n4nc(Cl)c5ccccc54)cc3F)CC2)c1`, the Papp in data set [2] came to 22 ×10⁻⁶ cm/s. The compound also showed a half-life in data set [4] of 2.6 h. In data set [5], the clearance was 4.3 mL/min/kg. Besides, the Ratio in data set [7] came to 1.9.
With `C[C@@H](NC(=O)C1(NC(=O)c2cncc(O)c2)CC1)c1ccc(-n2nc(Cl)c3ccccc32)cc1F`, in data set [2], the Papp was determined as 18 ×10⁻⁶ cm/s. For the same compound, the Ratio in data set [7] stood at 89.
With `COc1cncc(C(=O)NC2(C(=O)N[C@H](C)c3ccc(-n4nc(Cl)c5ccccc54)cc3F)CC2)c1`, the half-life in [1] was 0.7 h; in data set [4] it was 2.3 h. For the same compound, the Papp in data set [2] came out at 21 ×10⁻⁶ cm/s. In [3], this compound gave a bioavailability of 6%. Also, the figures for the clearance in data set [5] and in [6] were 5.5 mL/min/kg and 7.8 mL/min/kg, respectively. The Ratio in data set [7] is on record as 5.3.
Take `C[C@@H](NC(=O)C1(NC(=O)c2cncc(F)c2)CC1)c1ccc(-n2nc(Cl)c3ccccc32)cc1F`: the Papp in data set [2] amounted to 24 ×10⁻⁶ cm/s. Moreover, in [7], the Ratio was 7.5.
Regarding `C[C@@H](NC(=O)C1(NC(=O)c2cncc(Cl)c2)CC1)c1ccc(-n2nc(Cl)c3ccccc32)cc1F`, the Papp in [2] was determined as 15 ×10⁻⁶ cm/s. The compound further gave a half-life in [4] of 6 h. The compound further registered a clearance in [5] of 3.1 mL/min/kg. The Ratio in data set [7] was 2.5.
Consider `C[C@@H](NC(=O)C1(NC(=O)c2cncc(Br)c2)CC1)c1ccc(-n2nc(Cl)c3ccccc32)cc1F`, for which the results for the half-life in [1] and in data set [4] were 3.1 h and 7.6 h, respectively. Besides, in [2], the Papp turned out to be 13 ×10⁻⁶ cm/s. This compound also yielded a bioavailability in data set [3] of 24%. Also, the figures for the clearance in [5] and in data set [6] were 3.8 mL/min/kg and 2.5 mL/min/kg, respectively. In addition, the Ratio in data set [7] stood at 2.3.
For the compound `C[C@@H](NC(=O)C1(NC(=O)c2ccnnc2)CC1)c1ccc(-n2nc(Cl)c3ccccc32)cc1F`, the Papp in data set [2] was found to be 25 ×10⁻⁶ cm/s. Moreover, in [7], the Ratio turned out to be 29.4.
With `C[C@@H](NC(=O)C1(NC(=O)c2cncnc2)CC1)c1ccc(-n2nc(Cl)c3ccccc32)cc1F`, in data set [2], the apparent permeability (Papp) is 24 ×10⁻⁶ cm/s. Further, the Ratio in data set [7] turned out to be 5.9.
On to `C[C@@H](NC(=O)C1(NC(=O)c2cnccn2)CC1)c1ccc(-n2nc(Cl)c3ccccc32)cc1F`, for which the Papp in data set [2] turned out to be 30 ×10⁻⁶ cm/s. Besides, the Ratio in data set [7] is listed as 1.6.
For `C[C@@H](NC(=O)C1(NC(=O)c2cncc(Cl)n2)CC1)c1ccc(-n2nc(Cl)c3ccccc32)cc1F`, the half-life in data set [1] was 1.6 h; in data set [4], 15.1 h. The Papp in data set [2] stood at 24 ×10⁻⁶ cm/s. For the same compound, the figures for the clearance in data set [5] and in data set [6] were 10.5 mL/min/kg and 105 mL/min/kg, respectively. The Ratio in data set [7] was found to be 1.8.
With `COC(=O)c1c(F)cccc1-c1ccc(CNC(=O)C2(NC(=O)C(F)(F)F)CC2)c(F)c1`, the Ratio in data set [7] was found to be 4.1.
